Measurements: patent US9993494B2, “Compositions and methods for treating fibrotic disease” (eFFECTOR Therapeutics, Inc., priority 2014, dated 2018)

System: normal human lung fibroblasts
Assay: Ribosomal profiling: translational efficiency in TGFβ-treated fibroblasts
Type: cell-based
Protocol: Ribosomal profiling allows for measurement of changes in transcription and translation on a genome-wide basis accompanying TGFβ-dependent transformation of fibroblasts to myofibroblasts. Ribosomal profiles of the TGFβ-treated fibroblasts from Example 1 (about 6×10^6 cells/10 cm plate) were prepared and analyzed for changes in translational efficiencies with respect to potential disease-associated cellular changes accompanying this TGFβ-induced transformation.
Briefly, cells were washed with cold PBS supplemented with cycloheximide and lysed with 1× mammalian cell lysis buffer for 10 minutes on ice. Lysates were clarified by centrifugation for 10 minutes at 14,000 rpm and supernatants were collected. Cell lysates were processed to generate ribosomal protected fragments and total mRNA according to the instructions included with the ARTseq Ribosome Profiling Kit (Illumina, San Diego, Calif.). Sequencing of total RNA (RNA) and of ribosome-protected fragments of RNA (RPF) was carried out using RNA-Seq methodology according to the manufacturer's instructions (Illumina). To analyze the ribosomal profiles, RNA-Seq reads were processed with tools from the FASTX-Toolkit (fastq_quality_trimmer, fastx_clipper and fastx_trimmer). Unprocessed and processed reads were evaluated for a variety of quality measures using FastQC, and processed reads were mapped to the human genome using TopHat (see, e.g., Trapnell et al., Bioinformatics 25:1105, 2009). Gene-by-gene assessment of the number of fragments strictly and uniquely mapping to the coding region of each gene was conducted using HTSeq-count, a component of the HTSeq package. […] Genes with low counts in either RPF or RNA were excluded from differential analyses. Pathway and network analyses of differential data were conducted using Ingenuity Pathway Analysis (IPA).

What does the source list for `CC(C)n1nc(-c2cc3cc(O)ccc3[nH]2)c2c(N)ncnc21` [PP242]?
renormalizing the translational profile of RHOBTB3 (ENSG00000164292, TGFβ-treated fibroblasts): − (− = <0.9); renormalizing the translational profile of HCN1 (ENSG00000164588, TGFβ-treated fibroblasts): − (− = <0.9); renormalizing the translational profile of RPL36AL (ENSG00000165502, TGFβ-treated fibroblasts): − (− = <0.9); renormalizing the translational profile of RPL27A (ENSG00000166441, TGFβ-treated fibroblasts): − (− = <0.9); renormalizing the translational profile of RP11-382A20.3.1 (ENSG00000166503, TGFβ-treated fibroblasts): − (− = <0.9); renormalizing the translational profile of ANKDD1A (ENSG00000166839, TGFβ-treated fibroblasts): + (+ = 0.9 to 1.5); renormalizing the translational profile of RPL13 (ENSG00000167526, TGFβ-treated fibroblasts): − (− = <0.9); renormalizing the translational profile of EEF2 (ENSG00000167658, TGFβ-treated fibroblasts): + (+ = 0.9 to 1.5); renormalizing the translational profile of CA5B (ENSG00000169239, TGFβ-treated fibroblasts): + (+ = 0.9 to 1.5); renormalizing the translational profile of MURC (ENSG00000170681, TGFβ-treated fibroblasts): − (− = <0.9); renormalizing the translational profile of HTRA3 (ENSG00000170801, TGFβ-treated fibroblasts): − (− = <0.9); renormalizing the translational profile of PDE7B (ENSG00000171408, TGFβ-treated fibroblasts): − (− = <0.9); renormalizing the translational profile of LPAR3 (ENSG00000171517, TGFβ-treated fibroblasts): − (− = <0.9); renormalizing the translational profile of CTPS (ENSG00000171793, TGFβ-treated fibroblasts): − (− = <0.9); renormalizing the translational profile of QARS (ENSG00000172053, TGFβ-treated fibroblasts): − (− = <0.9); renormalizing the translational profile of RPL38 (ENSG00000172809, TGFβ-treated fibroblasts): − (− = <0.9); renormalizing the translational profile of MRPL45 (ENSG00000174100, TGFβ-treated fibroblasts): + (+ = 0.9 to 1.5); renormalizing the translational profile of RPL4 (ENSG00000174444, TGFβ-treated fibroblasts): − (− = <0.9); renormalizing the translational profile of RPL15 (ENSG00000174748, TGFβ-treated fibroblasts): − (− = <0.9); renormalizing the translational profile of DES (ENSG00000175084, TGFβ-treated fibroblasts): − (− = <0.9); renormalizing the translational profile of EIF3F (ENSG00000175390, TGFβ-treated fibroblasts): − (− = <0.9); renormalizing the translational profile of CLCF1 (ENSG00000175505, TGFβ-treated fibroblasts): − (− = <0.9); renormalizing the translational profile of AMIGO3 (ENSG00000176020, TGFβ-treated fibroblasts): − (− = <0.9); renormalizing the translational profile of C14orf49 (ENSG00000176438, TGFβ-treated fibroblasts): − (− = <0.9); renormalizing the translational profile of RPLP2 (ENSG00000177600, TGFβ-treated fibroblasts): − (− = <0.9); renormalizing the translational profile of IMPDH2 (ENSG00000178035, TGFβ-treated fibroblasts): − (− = <0.9); renormalizing the translational profile of DNAJC22 (ENSG00000178401, TGFβ-treated fibroblasts): + (+ = 0.9 to 1.5); renormalizing the translational profile of RPL35A (ENSG00000182899, TGFβ-treated fibroblasts): + (+ = 0.9 to 1.5); renormalizing the translational profile of LENG9 (ENSG00000182909, TGFβ-treated fibroblasts): − (− = <0.9); renormalizing the translational profile of C22orf32 (ENSG00000183172, TGFβ-treated fibroblasts): − (− = <0.9); renormalizing the translational profile of NPW (ENSG00000183971, TGFβ-treated fibroblasts): − (− = <0.9); renormalizing the translational profile of PDE4B (ENSG00000184588, TGFβ-treated fibroblasts): − (− = <0.9); renormalizing the translational profile of ROBO2 (ENSG00000185008, TGFβ-treated fibroblasts): − (− = <0.9); renormalizing the translational profile of PTCH1 (ENSG00000185920, TGFβ-treated fibroblasts): − (− = <0.9); renormalizing the translational profile of POLR1D (ENSG00000186184, TGFβ-treated fibroblasts): − (− = <0.9); renormalizing the translational profile of DYNC2H1 (ENSG00000187240, TGFβ-treated fibroblasts): − (− = <0.9); renormalizing the translational profile of RPL14 (ENSG00000188846, TGFβ-treated fibroblasts): − (− = <0.9); renormalizing the translational profile of LRRK2 (ENSG00000188906, TGFβ-treated fibroblasts): − (− = <0.9); renormalizing the translational profile of NACA (ENSG00000196531, TGFβ-treated fibroblasts): − (− = <0.9); renormalizing the translational profile of LAMB3 (ENSG00000196878, TGFβ-treated fibroblasts): − (− = <0.9); renormalizing the translational profile of PCBP2 (ENSG00000197111, TGFβ-treated fibroblasts): − (− = <0.9); renormalizing the translational profile of MAP3K5 (ENSG00000197442, TGFβ-treated fibroblasts): − (− = <0.9); renormalizing the translational profile of RPL37A (ENSG00000197756, TGFβ-treated fibroblasts): − (− = <0.9); renormalizing the translational profile of RPL12 (ENSG00000197958, TGFβ-treated fibroblasts): − (− = <0.9); renormalizing the translational profile of LPAR1 (ENSG00000198121, TGFβ-treated fibroblasts): − (− = <0.9); renormalizing the translational profile of RPL23A (ENSG00000198242, TGFβ-treated fibroblasts): − (− = <0.9); renormalizing the translational profile of PLN (ENSG00000198523, TGFβ-treated fibroblasts): − (− = <0.9); renormalizing the translational profile of RPL10A (ENSG00000198755, TGFβ-treated fibroblasts): − (− = <0.9); renormalizing the translational profile of CES1 (ENSG00000198848, TGFβ-treated fibroblasts): − (− = <0.9); renormalizing the translational profile of RPL39 (ENSG00000198918, TGFβ-treated fibroblasts): − (− = <0.9); renormalizing the translational profile of CARD16 (ENSG00000204397, TGFβ-treated fibroblasts): − (− = <0.9); renormalizing the translational profile of GNB2L1 (ENSG00000204628, TGFβ-treated fibroblasts): + (+ = 0.9 to 1.5); renormalizing the translational profile of RPL17 (ENSG00000215472, TGFβ-treated fibroblasts): − (− = <0.9); renormalizing the translational profile of RPL41 (ENSG00000229117, TGFβ-treated fibroblasts): − (− = <0.9); renormalizing the translational profile of ARPC1A (ENSG00000241685, TGFβ-treated fibroblasts): − (− = <0.9); renormalizing the translational profile of CHCHD10 (ENSG00000250479, TGFβ-treated fibroblasts): +++ (+++ = >2.0); renormalizing the translational profile of EEF1G (ENSG00000254772, TGFβ-treated fibroblasts): − (− = <0.9); number of the 141 eIF2 pathway genes that moved toward normal (TGFβ and PP242, of 141 genes, FIG. 8): 104; number of the 12 eIF2 signaling pathway genes that moved toward the untransformed, normal state (TGFβ and PP242, out of 12 genes, FIG. 7): 11; effect in renormalizing the translational profile of the gene (gene RPS2 (ENSG00000140988), TGFβ-treated fibroblasts): − (− = <0.9); effect in renormalizing the translational profile of the gene (gene RPS3 (ENSG00000149273), TGFβ-treated fibroblasts): − (− = <0.9); effect in renormalizing the translational profile of the gene (gene RPS3A (ENSG00000145425), TGFβ-treated fibroblasts): − (− = <0.9); effect in renormalizing the translational profile of the gene (gene RPS4X (ENSG00000198034), TGFβ-treated fibroblasts): − (− = <0.9); effect in renormalizing the translational profile of the gene (gene RPS4Y1 (ENSG00000129824), TGFβ-treated fibroblasts): − (− = <0.9); effect in renormalizing the translational profile of the gene (gene RPS5 (ENSG00000083845), TGFβ-treated fibroblasts): − (− = <0.9); effect in renormalizing the translational profile of the gene (gene RPS6 (ENSG00000137154), TGFβ-treated fibroblasts): − (− = <0.9)
